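Method: 48-hour compound exposure of cells in 96-well plates, five concentrations, linear interpolation of endpoints. The concentration for 50% growth inhibition is given as GI50. Definition used: TGI = concentration required for complete inhibition of growth.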
Assays:
Assay in all cases: NCI anticancer screen, dose series, 48 h
CCRF-CEM leukemia = system: CCRF-CEM leukemia
HCT-116 colon = system: HCT-116 colon
HCT-15 colon = system: HCT-15 colon
HS 578T breast = system: HS 578T breast
OVCAR-3 ovarian = system: OVCAR-3 ovarian
PC-3 prostate = system: PC-3 prostate
SF-295 CNS = system: SF-295 CNS
SK-MEL-2 melanoma = system: SK-MEL-2 melanoma
SNB-19 CNS = system: SNB-19 CNS
SNB-75 CNS = system: SNB-75 CNS
UO-31 renal = system: UO-31 renal
LOX IMVI melanoma = system: LOX IMVI melanoma
OVCAR-4 ovarian = system: OVCAR-4 ovarian

SMILES: Cc1ncc([N+](=O)[O-])n1CCNC(=O)Cn1c([N+](=O)[O-])cnc1C
- TGI (CCRF-CEM leukemia): > 100 µM
- TGI (HCT-116 colon): > 100 µM
- TGI (HCT-15 colon): > 100 µM
- TGI (HS 578T breast): > 100 µM
- TGI (OVCAR-3 ovarian): > 100 µM
- TGI (PC-3 prostate): > 100 µM
- TGI (SF-295 CNS): > 100 µM
- TGI (SK-MEL-2 melanoma): > 100 µM
- TGI (SNB-19 CNS): > 100 µM
- TGI (SNB-75 CNS): > 100 µM
- TGI (UO-31 renal): > 100 µM

SMILES: CN(C)Cc1cc(C(C)(C)C)cc(C2CCCCC2)c1O
- TGI (CCRF-CEM leukemia): 27.1 µM
- TGI (HCT-116 colon): > 100 µM
- TGI (HCT-15 colon): 28.6 µM
- TGI (HS 578T breast): 33.9 µM
- TGI (LOX IMVI melanoma): 28.5 µM
- TGI (OVCAR-3 ovarian): 28.3 µM
- TGI (OVCAR-4 ovarian): 24.4 µM
- TGI (PC-3 prostate): 26.4 µM
- TGI (SK-MEL-2 melanoma): 35 µM
- TGI (SNB-19 CNS): 25.6 µM
- TGI (SNB-75 CNS): 22.1 µM
- TGI (UO-31 renal): 32.5 µM

SMILES: N#Cc1c(N2CCOCC2)[nH]c(=O)c(C(c2c(Cl)cccc2Cl)c2c(O)c(C#N)c(N3CCOCC3)[nH]c2=O)c1O
- TGI (CCRF-CEM leukemia): 66.8 µM
- TGI (HCT-116 colon): > 100 µM
- TGI (HCT-15 colon): 28.2 µM
- TGI (HS 578T breast): 58.1 µM
- TGI (LOX IMVI melanoma): 25.6 µM
- TGI (OVCAR-3 ovarian): 30.4 µM
- TGI (OVCAR-4 ovarian): 32.9 µM
- TGI (PC-3 prostate): 37.7 µM
- TGI (SF-295 CNS): > 100 µM
- TGI (SK-MEL-2 melanoma): 39.5 µM
- TGI (SNB-19 CNS): 29.6 µM
- TGI (UO-31 renal): 33.5 µM

SMILES: c1ccc(CC2(c3cc4ccccc4[nH]3)OCCO2)nc1
- TGI (CCRF-CEM leukemia): > 100 µM
- TGI (HCT-116 colon): > 100 µM
- TGI (HCT-15 colon): > 100 µM
- TGI (HS 578T breast): > 100 µM
- TGI (LOX IMVI melanoma): > 100 µM
- TGI (OVCAR-3 ovarian): > 100 µM
- TGI (PC-3 prostate): > 100 µM
- TGI (SF-295 CNS): > 100 µM
- TGI (SK-MEL-2 melanoma): > 100 µM
- TGI (SNB-19 CNS): > 100 µM
- TGI (SNB-75 CNS): > 100 µM
- TGI (UO-31 renal): > 100 µM

SMILES: Cc1ccc2c(=O)cc(-c3sc4ccccc4c3C)[nH]c2n1
- TGI (CCRF-CEM leukemia): 58.4 µM
- TGI (HCT-116 colon): 55.6 µM
- TGI (HCT-15 colon): 73.8 µM
- TGI (HS 578T breast): 51.7 µM
- TGI (LOX IMVI melanoma): 46.7 µM
- GI50 (OVCAR-3 ovarian): 19.7 µM
- TGI (OVCAR-3 ovarian): 50.1 µM
- TGI (OVCAR-4 ovarian): 54 µM
- GI50 (PC-3 prostate): 33.4 µM
- TGI (PC-3 prostate): > 100 µM
- TGI (SF-295 CNS): 52.1 µM
- TGI (SK-MEL-2 melanoma): > 100 µM
- TGI (SNB-19 CNS): > 100 µM
- TGI (SNB-75 CNS): 50.8 µM

SMILES: O=c1[nH]c2c(c(=O)[nH]1)SSC2
- TGI (HCT-116 colon): 13.8 µM
- TGI (HCT-15 colon): > 91.9 µM
- TGI (HS 578T breast): 56 µM
- TGI (LOX IMVI melanoma): 6.24 µM
- TGI (OVCAR-3 ovarian): 38 µM
- TGI (OVCAR-4 ovarian): 31.4 µM
- TGI (PC-3 prostate): > 71.1 µM
- TGI (SF-295 CNS): 36.6 µM
- TGI (SK-MEL-2 melanoma): 14.5 µM
- TGI (SNB-19 CNS): > 81.3 µM
- TGI (SNB-75 CNS): 34.8 µM
- TGI (UO-31 renal): 24.2 µM

SMILES: CC(=O)O[C@@H](C1C[C@@H](C)[C@H]2[C@@](O)(O1)[C@H](O)[C@@]1(C)C3=CC[C@H]4C(C)(C)[C@@H](OC5OCC(O)C(O)C5O)CC[C@@]45C[C@@]35CC[C@]21C)C(C)(C)O (stereo partly drawn)
- TGI (CCRF-CEM leukemia): 24.4 µM
- TGI (HCT-116 colon): 41.5 µM
- TGI (HCT-15 colon): 71.1 µM
- TGI (HS 578T breast): > 100 µM
- TGI (LOX IMVI melanoma): 42.4 µM
- TGI (OVCAR-3 ovarian): 41.9 µM
- TGI (OVCAR-4 ovarian): > 100 µM
- TGI (PC-3 prostate): 50.7 µM
- TGI (SF-295 CNS): 48.1 µM
- TGI (SK-MEL-2 melanoma): 36.9 µM
- TGI (SNB-19 CNS): > 100 µM
- TGI (UO-31 renal): 62.2 µM

SMILES: CCOP(=O)(OCC)/C(C#N)=C/c1c[nH]c2ccccc12
- TGI (HCT-116 colon): > 100 µM
- TGI (HCT-15 colon): > 100 µM
- TGI (HS 578T breast): > 100 µM
- TGI (LOX IMVI melanoma): > 100 µM
- TGI (OVCAR-3 ovarian): > 100 µM
- TGI (OVCAR-4 ovarian): > 100 µM
- TGI (PC-3 prostate): > 100 µM
- TGI (SF-295 CNS): > 100 µM
- TGI (SK-MEL-2 melanoma): > 100 µM
- TGI (SNB-19 CNS): > 100 µM
- TGI (SNB-75 CNS): > 100 µM
- TGI (UO-31 renal): 77.4 µM

SMILES: COc1ccc(N=[N+]([O-])c2ccc(OC)cc2)cc1
- TGI (HCT-116 colon): > 100 µM
- TGI (HCT-15 colon): > 100 µM
- TGI (HS 578T breast): > 100 µM
- TGI (OVCAR-3 ovarian): > 100 µM
- TGI (OVCAR-4 ovarian): > 100 µM
- TGI (PC-3 prostate): > 100 µM
- TGI (SF-295 CNS): > 100 µM
- TGI (SK-MEL-2 melanoma): > 100 µM
- TGI (SNB-19 CNS): > 100 µM
- TGI (SNB-75 CNS): > 100 µM
- TGI (UO-31 renal): > 100 µM
